Laboratory results taken from ChEMBL document CHEMBL1152576, “E-Combretastatin and E-resveratrol structural modifications: antimicrobial and cancer cell growth inhibitory beta-E-nitrostyrenes” (Bioorg Med Chem, 2009).
≈ marks a conversion by molar mass, not a printed value. Calls of active or inactive are those of the source. The rule behind the calls is not given here.

How the values were obtained:
[1] = test system: SF-295; assay: Cytotoxicity against human SF295 cells after 48 hrs by sulforhodamine B assay; assay type: functional
[2] = test system: NCI-H460; assay: Cytotoxicity against human NCI-H460 cells after 48 hrs by sulforhodamine B assay; assay type: functional; conditions: NCI-H460, 48 h
[3] = test system: MCF7; assay: Cytotoxicity against human MCF7 cells after 48 hrs by sulforhodamine B assay; assay type: functional
[4] = test system: Cryptococcus neoformans; assay: Antimicrobial activity against Cryptococcus neoformans ATCC 90112 assessed clear zone in inhibition per disk by CLSI disk diffusion susceptibility assay; assay type: functional
[5] = test system: Stenotrophomonas maltophilia; assay: Antimicrobial activity against Stenotrophomonas maltophilia ATCC 13637 assessed clear zone in inhibition per disk by CLSI disk diffusion susceptibility assay; assay type: functional
[6] = test system: P388; assay: Cytotoxicity against mouse P388 cells after 48 hrs by sulforhodamine B assay; assay type: functional; conditions: P388, 48 h, read-out: ED50 (the source's name)
[7] = test system: DU-145; assay: Cytotoxicity against human DU145 cells after 48 hrs by sulforhodamine B assay; assay type: functional
[8] = test system: Streptococcus pneumoniae; assay: Antimicrobial activity against Streptococcus pneumoniae ATCC 6303 assessed clear zone in inhibition per disk by CLSI disk diffusion susceptibility assay; assay type: functional
[9] = test system: A498; assay: Cytotoxicity against human A498 cells after 48 hrs by sulforhodamine B assay; assay type: functional
[10] = test system: Staphylococcus aureus; assay: Antimicrobial activity against Staphylococcus aureus ATCC 29213 assessed clear zone in inhibition per disk by CLSI disk diffusion susceptibility assay; assay type: functional
[11] = test system: Enterococcus faecalis; assay: Antimicrobial activity against Enterococcus faecalis ATCC 29212 assessed clear zone in inhibition per disk by CLSI disk diffusion susceptibility assay; assay type: functional
[12] = test system: Escherichia coli; assay: Antimicrobial activity against Escherichia coli ATCC 25922 assessed clear zone in inhibition per disk by CLSI disk diffusion susceptibility assay; assay type: functional
[13] = test system: BXPC-3; assay: Cytotoxicity against human BxPC3 cells after 48 hrs by sulforhodamine B assay; assay type: functional
[14] = test system: Enterobacter cloacae; assay: Antimicrobial activity against Enterobacter cloacae ATCC 13047 assessed clear zone in inhibition per disk by CLSI disk diffusion susceptibility assay; assay type: functional
[15] = test system: Neisseria gonorrhoeae; assay: Antimicrobial activity against Neisseria gonorrhoeae ATCC 49226 assessed clear zone of inhibition measured per disk by CLSI disk diffusion susceptibility assay; assay type: functional
[16] = test system: SK-MEL-5; assay: Cytotoxicity against human SK-MEL-5 cells after 48 hrs by sulforhodamine B assay; assay type: functional
[17] = test system: OVCAR-3; assay: Cytotoxicity against human OVCAR-3 cells after 48 hrs by sulforhodamine B assay; assay type: functional
[18] = test system: KM-20L2; assay: Cytotoxicity against human KM20L2 cells after 48 hrs by sulforhodamine B assay; assay type: functional
[19] = test system: Micrococcus luteus; assay: Antimicrobial activity against Micrococcus luteus Presque Isle 456 assessed clear zone in inhibition per disk by CLSI disk diffusion susceptibility assay; assay type: functional
[20] = test system: Candida albicans; assay: Antimicrobial activity against Candida albicans ATCC 90028 assessed clear zone in inhibition per disk by CLSI disk diffusion susceptibility assay; assay type: functional
[21] = test system: SF-268; assay: Cytotoxicity against human SF268 cells after 48 hrs by sulforhodamine B assay; assay type: functional
[22] = Inhibition of tubulin polymerization

SMILES	GI50 [2] [µg/mL]	MIC [4] [µg]	MIC [5] [µg]	EC50 [6] [µg/mL]	MIC [8] [µg]	MIC [10] [µg]	MIC [11] [µg]	MIC [12] [µg]	MIC [14] [µg]	MIC [15] [µg]	GI50 ([18]; KM-20L2, 48 h) [µg/mL]	MIC [19] [µg]	MIC [20] [µg]	GI50 [1]	GI50 ([7]; DU-145, 48 h) [µg/mL]	GI50 [9]	GI50 ([13]; BXPC-3, 48 h) [µg/mL]	IC50 [22] [µM]	GI50 [16]	GI50 [17]	other results
COc1cc(OC)c(/C=C/[N+](=O)[O-])c(OC)c1	0.32 (≈ 1.34 µM)	>100	>100	14 (≈ 58.5 µM)	>100	>100	>100	>100	>100	>100	0.38 (≈ 1.59 µM)	>100	>100	–	–	–	–	–	–	–	GI50 ([1]; SF-295, 48 h): 0.45 µg/mL (≈ 1.88 µM); GI50 [3]: inactive; GI50 [7]: inactive; GI50 ([9]; A498, 48 h): 0.36 µg/mL (≈ 1.5 µM); GI50 [13]: inactive; GI50 ([16]; SK-MEL-5, 48 h): 0.61 µg/mL (≈ 2.55 µM); GI50 ([17]; OVCAR-3, 48 h): 0.42 µg/mL (≈ 1.76 µM); GI50 [21]: inactive
COc1ccc(/C=C/c2cc(OC)c(OC)c(OC)c2)cc1O [E-COMBRETASTATIN A-4]	0.038 (≈ 0.12 µM)	–	–	0.28 (≈ 0.885 µM)	–	–	–	–	–	–	–	–	–	inactive	0.037 (≈ 0.117 µM)	inactive	3.9 (≈ 12.3 µM)	33	inactive	inactive	GI50 [3]: inactive; GI50 [18]: inactive; GI50 [21]: inactive
O=[N+]([O-])/C=C/c1ccc(OP(=O)([O-])[O-])cc1.[Na+].[Na+]	> 10	>100	>100	47.8	>100	>100	>100	>100	>100	>100	> 10	>100	>100	inactive	57.8	inactive	> 10	> 40	inactive	inactive	GI50 ([3]; MCF7, 48 h): > 10 µg/mL; GI50 ([21]; SF-268, 48 h): > 10 µg/mL
COc1ccc(/C=C/[N+](=O)[O-])cc1OP(=O)(OCc1ccccc1)OCc1ccccc1	> 10	>100	>100	2.2 (≈ 4.83 µM)	>100	3.12	6.25	>100	>100	0.78	> 10	3.12	>100	–	> 10	inactive	> 10	10	inactive	–	GI50 ([1]; SF-295, 48 h): > 10 µg/mL; GI50 [3]: inactive; GI50 ([17]; OVCAR-3, 48 h): > 10 µg/mL; GI50 [21]: inactive
CCOc1ccc(/C=C/[N+](=O)[O-])cc1	1.9 (≈ 9.83 µM)	1.56	>100	3.8 (≈ 19.7 µM)	12.5	25	50	>100	>100	0.78	2.4 (≈ 12.4 µM)	50	3.12	inactive	2.2 (≈ 11.4 µM)	inactive	1.2 (≈ 6.21 µM)	5.5	inactive	inactive	GI50 ([3]; MCF7, 48 h): 1.1 µg/mL (≈ 5.69 µM); GI50 ([21]; SF-268, 48 h): 1.8 µg/mL (≈ 9.32 µM)
COc1ccc(/C=C\c2cc(OC)c(OC)c(OC)c2)cc1O [COMBRETASTATIN A4]	0.0006 (≈ 0.0019 µM)	–	–	0.03 (≈ 0.0948 µM)	–	–	–	–	–	–	0.34 (≈ 1.07 µM)	–	–	inactive	0.0008 (≈ 0.00253 µM)	inactive	0.39 (≈ 1.23 µM)	2.1	inactive	inactive	GI50 [3]: inactive
COc1ccc(/C=C/[N+](=O)[O-])cc1OP(=O)([O-])[O-].[Na+].[Na+]	5.8	>100	>100	5.7	>100	>100	>100	>100	>100	50	> 10	>100	>100	inactive	4	inactive	> 10	18	inactive	inactive	GI50 ([3]; MCF7, 48 h): 4.3 µg/mL; GI50 ([21]; SF-268, 48 h): 4.2 µg/mL
